Source: patent publication US11820782B2, “Salt forms of amino pyrazine purine based selective kinase inhibitor” (FTG BIO LLC, priority 2018, dated 2023)
Like-named read-outs stand apart in the source and are kept apart here.

What was measured:
Human Plasma = test: Plasma protein binding, human; type: in vitro ADME
Protocol: (§1) All in vitro experiments like protein binding, microsomal stability, cell cytotoxicity were performed as per study protocols of respective experiments.

[1] = Hygroscopicity (dynamic vapor sorption); type: physicochemical; conditions: normal room temperature / ambient conditions
Protocol: Sorption isotherms were obtained using a VTI-SA+-moisture sorption analyzer from TA instruments. The sample temperature was maintained at 25° C. by the instrument controls. The humidity was controlled by mixing the streams of dry and wet nitrogen, with a total flow rate of 200 mL/minute. The weight change of the sample as a function of % RH was constantly monitored by microbalance.
Typically, 5 to 20 mg of the sample was weighed under ambient conditions in a tared mesh stainless steel basket. The sample was loaded and unloaded at 40% RH and 25° C. A moisture sorption isotherm was performed as outlined. The standard isotherm was performed at 25° C. at 10% RH intervals over a 0 to 90% RH range. Sample was dried at 40° C. from ambient room conditions to 0% RH.

[2] = Microsomal stability, PHLM; type: in vitro ADME; conditions: pooled human liver microsomes
Protocol: as §1

[3] = pH vs solubility study (RP-HPLC); type: physicochemical
Protocol: In 2 mL volume of buffers (ranging from pH 1.2 to 7.4) and purified water, compound (either free base or esylate or oxalate) was added with increments until the compound doesn't dissolve further in the medium and compound remains undissolved or excess in the solution. The samples were kept for overnight at ambient room temperature to saturate/equilibrate. The dispersions were filtered through 0.45 μm PVDF or nylon membrane filters and the filtrates were analysed using RP-HPLC for determination of solubility of compounds in various buffers and purified water.

[4] = 1 week stability of shortlisted salts at 40° C./75% RH, open; type: physicochemical; conditions: for pH of 2% w/v aqueous dispersion/solution / state of 2% w/v aqueous dispersion/solution: 2% w/v in water; for % purity / XRD: after 7 days at 40° C./75% RH, open; for % purity: HPLC; for XRD: physical form vs initial
[5] = Intravenous and per oral pharmacokinetics in male Sprague Dawley rats; type: in vivo, Sprague Dawley (SD) rats; conditions: male SD rats; for Bioavailability (% F): PO dose (10 mg/kg) vs IV 5 mg/kg
Protocol: (§2) The husbandry conditions were maintained as described in animal facility SOPs during the study period. Animals procured were quarantined for 7 days followed by acclimatization for 5 days. The study was carried out for two days. Male Balb/c mice of age 10-12 weeks (18-25 g) and male Sprague Dawley rats 8-10 weeks (220-280 g) were used. The food was with held for a period of 4-12 hr prior to dosing and returned to all animals 4h post dosing and water supplied ad libitum. The doses of FT1518 were as follows: Mice: 10 mg/kg intravenous (i.v) and 50 mg/kg oral (p.o); rat—5 mg/kg intravenous (i.v) and 10 mg/kg oral (p.o). The formulation used in i.v and p.o studies were 10% dimethylsulfoxide (DMSO)+30% polyethyleneglycol 400 (PEG400)+60% water and 0.5% methylcellulose (MC)+0.1% tween 80. Blood was collected at the predetermined time points in mice (cardiac puncture) and Jugular vein (rats) over a period of 24h in eppendorf tubes containing K2EDTA as anticoagulant. The plasma was isolated from the blood and stored at −80° C. until bioanalysis.
Intravenous and Per Oral Pharmacokinetic Profile of FT1518 (Base); FT1518-Esylate Salt and FT1518-Oxalate Salt in Male Sprague Dawley (SD) Rats Species: SD rats Gender: Male Dose: IV (5 mg/kg), Single dose • PO (10 mg/kg), single dose Formulation: • IV—DMSO: PEG400:Water (10:30:60 v/v) • PO— 0.5% methylcellulose and 0.1% Tween 80 in water Sampling Time Points: • IV: 5 min, 15 min, 30 min, 1 h, 2, 4, 8 and 24 h post dose • PO: 10 min, 15 min, 30 min, 1 h, 2, 4, 8 and 24 h post dose. PK analysis: Phoenix software (Pharsight product). Noncompartmental Analysis (NCA) was used to estimate the PK parameters

Mouse plasma = test: Plasma protein binding, mouse; type: in vitro ADME
Protocol: as §1

[6] = Equilibrium solubility in pH 6.8 0.01M phosphate buffer by HPLC; type: physicochemical; conditions: pH6.8 0.01M potassium dihydrogen phosphate buffer
[7] = Intravenous and per oral pharmacokinetics in male Balb/c mice; type: in vivo; conditions: for Bioavailability (% F): PO dose (50 mg/kg) vs IV 10 mg/kg
Protocol: as §2, with “bioanalysis. Species: BALB/C mice Gender: Male Dose: IV (10 mg/kg), Single dose • PO (50 mg/kg), single dose Formulation: • IV—DMSO: PEG400:Water (10:30:60 v/v) • PO— 0.5% methylcellulose and 0.1% Tween 80 in water Sampling Time Points: • IV: 5 min, 30 min, 1 h, 2, 4, 8 and 24 h post dose • PO: 10 min, 30 min, 1 h, 2, 4, 8 and 24 h post dose. PK analysis: Phoenix software (Pharsight product). Noncompartmental Analysis (NCA) was used to estimate the PK parameters. FIG. 56 depicts a pharmacokinetic profile of FT-1518 base in mice. Table 31 summarizes PK parameters used in a pharmacokinetic profile with intravenous dose in mice and Table 32 summarizes PK parameters used in a pharmacokinetic profile with per oral dose in mice.” for “bioanalysis.”

[8] = test system: MDA-MB-231 (breast cancer); test: Anti-proliferative effect, MDA-MB-231; type: cell-based
Protocol: as §1

[9] = male, Balb/c, mouse, plasma, po, 50 mg/kg, PO dose (50 mg/kg), single dose, male Balb/c mice
[10] = PO dose (50 mg/kg), single dose, male Balb/c mice, 50 mg/kg

In the case of `CCC(CC)n1cnc2c(-c3cnc(N)cn3)nc(N3CC4CCC(C3)O4)nc21` [FT-1518-Esylate], the “plasma protein binding, human plasma” value (Human Plasma) is reported as “✓ FT1518, FT1518-Esylate and FT1518-Oxalate showed moderate plasma protein binding in both mouse and human plasma”, the hygroscopicity [1] is reported as “non-hygroscopic” and the half-life at 3 μM ([2]; 3 μM (n = 3), read-out: Invitro T1/2, PHLM) is reported as over 1 h. For the same molecule, the “stability in PHLM” value [2] was “✓ FT1518, FT 1518-Esylate and FT1518-Oxalate was highly stable in PHLM and RLM”, the Solubility ([3]; Water, overnight, ambient room temperature, listed as Esylate salt) was over 539.39 mg/mL and the Solubility ([3]; pH 1.2 HCl, listed as Esylate salt) was over 587.07 mg/mL. For the same molecule, the Solubility ([3]; pH 3.0 Citrate buffer, listed as Esylate salt) was over 76.38 mg/mL, the Solubility ([3]; pH 4.0 Acetate buffer, listed as Esylate salt) was 53.25 mg/mL and the Solubility ([3]; pH 5.0 Acetate buffer, listed as Esylate salt) was 0.84 mg/mL. For the same molecule, the Solubility ([3]; pH 6.8 Phosphate buffer, listed as Esylate salt) was 79.08 mg/mL, the Solubility ([3]; pH 7.4 Phosphate buffer, listed as Esylate salt) was 40.8 mg/mL and the “pH of 2% w/v aqueous dispersion/solution” value [4] was 2.1. The “state of 2% w/v aqueous dispersion/solution” value [4] was “soluble”, the “% purity” value [4] was 98.07% and the XRD [4] was “Same as initial form”. The “Bioavailability (% F)” value [5] was over 100%, the AUC ([5]; male, Sprague Dawley, rat, plasma, po, 10 mg/kg, PO dose (10 mg/kg), single dose, read-out: AUC (AU C0^.oo)) was 9680 ng·h/mL and the Cmax ([5]; male, Sprague Dawley, rat, plasma, po, 10 mg/kg, PO dose (10 mg/kg), single dose, read-out: Cmax) was 1770 ng/mL. The “plasma protein binding, mouse plasma” value (Mouse plasma) was “✓ FT1518, FT1518-Esylate and FT1518-Oxalate showed moderate plasma protein binding in both mouse and human plasma”, the “Solubility in pH 6.8 buffer” value [6] was 77.98 mg/mL and the “Bioavailability (% F)” value ([7]; male Balb/c mice) was 62 % F. For the same molecule, the AUC(0-inf) [7, 9] was 23700 ± 9250 ng·h/mL, the half-life [7, 9] was 3.4 ± 1.2 h and the Cmax ([7]; male, Balb/c, mouse, plasma, po, 50 mg/kg, PO dose (50 mg/kg), single dose, male Balb/c mice, read-out: Cmax) was 8190 ± 891 ng/mL. For the same molecule, the Tmax ([7]; mouse, plasma, PO dose (50 mg/kg), single dose, male Balb/c mice, read-out: Tmax) was 0.3 ± 0.2 h and the IC50 ([8]; Homo sapiens) was over 10 µM.

In the case of `CCC(CC)n1cnc2c(-c3cnc(N)cn3)nc(N3CC4CCC(C3)O4)nc21` [FT-1518-Oxalate], the “plasma protein binding, human plasma” value (Human Plasma) is reported as “✓ FT1518, FT1518-Esylate and FT1518-Oxalate showed moderate plasma protein binding in both mouse and human plasma”, the “% Bound, Human Plasma” value (Human Plasma; 10 μM (n = 4)) is reported as 95.54% and the hygroscopicity [1] is reported as “non-hygroscopic”. The “Invitro T1/2, PHLM” value ([2]; 3 μM (n = 3)) was over 1 h, the “stability in PHLM” value [2] was “✓ FT1518, FT 1518-Esylate and FT1518-Oxalate was highly stable in PHLM and RLM” and the Solubility ([3]; Water, overnight, ambient room temperature, listed as Oxalate salt) was 11.03 mg/mL. It also gave a Solubility ([3]; pH 1.2 HCl, listed as Oxalate salt) of over 52.76 mg/mL, a Solubility ([3]; pH 3.0 Citrate buffer, listed as Oxalate salt) of 20.25 mg/mL and a Solubility ([3]; pH 4.0 Acetate buffer, listed as Oxalate salt) of 1.05 mg/mL. The Solubility ([3]; pH 5.0 Acetate buffer, listed as Oxalate salt) was 0.14 mg/mL, the Solubility ([3]; pH 6.8 Phosphate buffer, listed as Oxalate salt) was 5.28 mg/mL and the Solubility ([3]; pH 7.4 Phosphate buffer, listed as Oxalate salt) was 0.76 mg/mL. For the same molecule, the “pH of 2% w/v aqueous dispersion/solution” value [4] was 2.6, the “state of 2% w/v aqueous dispersion/solution” value [4] was “dispersion” and the “% purity” value [4] was 97.04%. For the same molecule, the XRD [4] was “Same as initial form”, the “Bioavailability (% F)” value [5] was 68% and the Cmax ([5]; PO dose (10 mg/kg), single dose, 10 mg/kg) was 1980 ng/mL. For the same molecule, the “plasma protein binding, mouse plasma” value (Mouse plasma) was “✓ FT1518, FT1518-Esylate and FT1518-Oxalate showed moderate plasma protein binding in both mouse and human plasma”, the “% Bound, Mouse plasma” value (Mouse plasma; 10 μM (n = 4)) was 91.79% and the “Solubility in pH 6.8 buffer” value [6] was 10.21 mg/mL. For the same molecule, the “bioavailability in comparison to esylate salt and base” value ([7]; PO 50 mg/kg, Balb/c male mice) was “FT-1518-oxalate salt showed high bioavailability in comparison to esylate salt and base”, the “Bioavailability (% F)” value ([7]; male Balb/c mice) was 76 % F and the “AUC0-∞” value [7, 10] was 28876 ± 7762 ng·h/mL. For the same molecule, the Cmax [7, 10] was 8444 ± 1473 ng/mL, the T1/2 [7, 10] was 3.5 ± 1.9 h and the Tmax [7, 10] was 0.3 ± 0.2 h. For the same molecule, the IC50 [8] was over 10 µM.
